Columns and labels:
Assay in all cases: KINOMEscan competition binding
Settings in all cases: compound 1.0 µM
ABL2 (human) = ABL2 (human) (UniProt P42684)
ACVRL1 (human) = ACVRL1 (human) (UniProt P37023)
AKT1 (human) = AKT1 (human) (UniProt P31749)
BLK (human) = BLK (human) (UniProt P51451)
BRSK1 (human) = BRSK1 (human) (UniProt Q8TDC3)
CDK17 (human) = CDK17 (human) (UniProt Q00537)
CDK7 (human) = CDK7 (human) (UniProt P50613)
CDK8 (human) = CDK8 (human) (UniProt P49336)
CSNK1G2 (human) = CSNK1G2 (human) (UniProt P78368)
CSNK1G3 (human) = CSNK1G3 (human) (UniProt Q9Y6M4)
DDR1 (human) = DDR1 (human) (UniProt Q08345)
DSTYK (human) = DSTYK (human) (UniProt Q6XUX3)
EGFR (human) = EGFR (human) (UniProt P00533)
[1] = tested on: EGFR (human), P00533 [G719S]
EPHA7 (human) = EPHA7 (human) (UniProt Q15375)
EPHB4 (human) = EPHB4 (human) (UniProt P54760)
EPHB6 (human) = EPHB6 (human) (UniProt O15197)
[2] = tested on: FLT3 (human), P36888 [N841I]
GRK7 (human) = GRK7 (human) (UniProt Q8WTQ7)
LIMK2 (human) = LIMK2 (human) (UniProt P53671)
MAP3K12 (human) = MAP3K12 (human) (UniProt Q12852)
[3] = tested on: MET (human), P08581 [M1250T]
MYLK (human) = MYLK (human) (UniProt Q15746)
MYLK4 (human) = MYLK4 (human) (UniProt Q86YV6)
MYO3B (human) = MYO3B (human) (UniProt Q8WXR4)
NEK7 (human) = NEK7 (human) (UniProt Q8TDX7)
NLK (human) = NLK (human) (UniProt Q9UBE8)
PAK3 (human) = PAK3 (human) (UniProt O75914)
PI4KB (human) = PI4KB (human) (UniProt Q9UBF8)
PIP4K2C (human) = PIP4K2C (human) (UniProt Q8TBX8)
PIP5K1A (human) = PIP5K1A (human) (UniProt Q99755)
PKMYT1 (human) = PKMYT1 (human) (UniProt Q99640)
PKN1 (human) = PKN1 (human) (UniProt Q16512)
PRKD2 (human) = PRKD2 (human) (UniProt Q9BZL6)
RAF1 (human) = RAF1 (human) (UniProt P04049)
RPS6KA1 KD1 (human) = RPS6KA1 KD1 (human) (UniProt Q15418)
RPS6KA3 KD1 (human) = RPS6KA3 KD1 (human) (UniProt P51812)
TEK (human) = TEK (human) (UniProt Q02763)
TGFBR2 (human) = TGFBR2 (human) (UniProt P37173)
TNK2 (human) = TNK2 (human) (UniProt Q07912)
TXK (human) = TXK (human) (UniProt P42681)
VRK2 (human) = VRK2 (human) (UniProt Q86Y07)
YSK4 (human) = YSK4 (human) (UniProt Q56UN5)

DDR1 (human), sequence (Q08345 whole entry, looked up): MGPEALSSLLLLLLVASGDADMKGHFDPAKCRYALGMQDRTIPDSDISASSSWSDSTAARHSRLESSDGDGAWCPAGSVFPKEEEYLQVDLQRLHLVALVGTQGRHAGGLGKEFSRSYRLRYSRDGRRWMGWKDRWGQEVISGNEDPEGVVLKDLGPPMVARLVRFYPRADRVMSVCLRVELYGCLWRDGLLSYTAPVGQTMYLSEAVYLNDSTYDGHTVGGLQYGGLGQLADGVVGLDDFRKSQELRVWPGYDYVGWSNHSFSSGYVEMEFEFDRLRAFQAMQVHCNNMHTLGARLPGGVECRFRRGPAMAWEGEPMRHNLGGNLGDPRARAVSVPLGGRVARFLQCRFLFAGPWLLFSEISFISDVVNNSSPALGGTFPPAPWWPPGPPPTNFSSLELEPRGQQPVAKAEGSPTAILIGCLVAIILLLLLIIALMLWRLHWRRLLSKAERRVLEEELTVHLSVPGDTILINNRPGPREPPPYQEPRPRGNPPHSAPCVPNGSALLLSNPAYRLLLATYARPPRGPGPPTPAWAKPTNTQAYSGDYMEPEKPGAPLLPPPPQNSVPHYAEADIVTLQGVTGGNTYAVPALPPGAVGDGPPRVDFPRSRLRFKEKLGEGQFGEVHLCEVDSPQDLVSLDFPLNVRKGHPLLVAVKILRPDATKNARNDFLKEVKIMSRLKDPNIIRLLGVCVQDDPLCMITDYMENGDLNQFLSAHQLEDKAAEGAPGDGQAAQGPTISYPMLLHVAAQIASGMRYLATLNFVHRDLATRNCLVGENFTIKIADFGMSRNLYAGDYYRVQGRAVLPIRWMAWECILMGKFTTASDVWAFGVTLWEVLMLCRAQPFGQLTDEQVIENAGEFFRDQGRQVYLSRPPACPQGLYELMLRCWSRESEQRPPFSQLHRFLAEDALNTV
EPHA7 (human), sequence (Q15375 whole entry, looked up): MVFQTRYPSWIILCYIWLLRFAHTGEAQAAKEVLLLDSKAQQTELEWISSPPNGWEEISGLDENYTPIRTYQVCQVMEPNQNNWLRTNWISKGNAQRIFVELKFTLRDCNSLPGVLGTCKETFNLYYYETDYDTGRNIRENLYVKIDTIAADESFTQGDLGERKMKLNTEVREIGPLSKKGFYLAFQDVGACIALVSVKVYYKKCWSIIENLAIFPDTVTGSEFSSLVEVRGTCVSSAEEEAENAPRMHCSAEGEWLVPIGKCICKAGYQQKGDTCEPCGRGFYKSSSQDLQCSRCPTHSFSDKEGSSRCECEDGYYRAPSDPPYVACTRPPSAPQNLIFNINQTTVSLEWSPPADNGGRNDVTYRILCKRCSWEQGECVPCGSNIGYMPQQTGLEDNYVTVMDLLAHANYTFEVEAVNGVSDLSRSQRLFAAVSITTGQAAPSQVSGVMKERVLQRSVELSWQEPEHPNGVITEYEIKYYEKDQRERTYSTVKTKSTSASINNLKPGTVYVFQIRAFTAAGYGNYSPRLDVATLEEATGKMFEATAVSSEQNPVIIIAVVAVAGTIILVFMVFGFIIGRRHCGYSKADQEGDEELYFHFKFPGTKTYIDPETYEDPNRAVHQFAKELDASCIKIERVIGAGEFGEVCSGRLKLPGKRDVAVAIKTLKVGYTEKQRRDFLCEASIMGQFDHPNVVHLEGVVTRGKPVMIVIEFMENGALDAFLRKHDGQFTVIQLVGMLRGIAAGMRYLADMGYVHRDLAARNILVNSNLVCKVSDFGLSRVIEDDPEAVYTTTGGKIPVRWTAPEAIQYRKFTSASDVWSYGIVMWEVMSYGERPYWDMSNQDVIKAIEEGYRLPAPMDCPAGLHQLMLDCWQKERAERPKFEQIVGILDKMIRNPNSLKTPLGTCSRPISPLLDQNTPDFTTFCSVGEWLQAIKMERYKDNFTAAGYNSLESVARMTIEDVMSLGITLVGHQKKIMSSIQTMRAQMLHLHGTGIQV
LIMK2 (human), sequence (P53671 whole entry, looked up): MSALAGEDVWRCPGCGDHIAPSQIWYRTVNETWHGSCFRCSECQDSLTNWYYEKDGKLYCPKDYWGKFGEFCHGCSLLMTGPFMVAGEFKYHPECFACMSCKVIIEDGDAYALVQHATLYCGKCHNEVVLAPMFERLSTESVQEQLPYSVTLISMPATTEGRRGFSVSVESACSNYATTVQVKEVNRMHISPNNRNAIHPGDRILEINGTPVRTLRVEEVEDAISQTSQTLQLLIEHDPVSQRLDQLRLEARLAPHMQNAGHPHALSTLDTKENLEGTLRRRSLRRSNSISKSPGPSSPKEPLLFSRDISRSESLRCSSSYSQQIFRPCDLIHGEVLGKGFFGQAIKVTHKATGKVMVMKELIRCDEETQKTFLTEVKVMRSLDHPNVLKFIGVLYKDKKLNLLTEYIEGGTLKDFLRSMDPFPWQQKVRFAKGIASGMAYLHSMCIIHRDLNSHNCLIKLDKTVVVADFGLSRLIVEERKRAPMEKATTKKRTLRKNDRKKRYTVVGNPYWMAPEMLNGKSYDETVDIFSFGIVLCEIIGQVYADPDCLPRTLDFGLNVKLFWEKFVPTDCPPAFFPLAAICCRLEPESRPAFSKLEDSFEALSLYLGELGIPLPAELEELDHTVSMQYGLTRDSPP
RPS6KA1 KD1 (human), sequence (Q15418 whole entry, looked up): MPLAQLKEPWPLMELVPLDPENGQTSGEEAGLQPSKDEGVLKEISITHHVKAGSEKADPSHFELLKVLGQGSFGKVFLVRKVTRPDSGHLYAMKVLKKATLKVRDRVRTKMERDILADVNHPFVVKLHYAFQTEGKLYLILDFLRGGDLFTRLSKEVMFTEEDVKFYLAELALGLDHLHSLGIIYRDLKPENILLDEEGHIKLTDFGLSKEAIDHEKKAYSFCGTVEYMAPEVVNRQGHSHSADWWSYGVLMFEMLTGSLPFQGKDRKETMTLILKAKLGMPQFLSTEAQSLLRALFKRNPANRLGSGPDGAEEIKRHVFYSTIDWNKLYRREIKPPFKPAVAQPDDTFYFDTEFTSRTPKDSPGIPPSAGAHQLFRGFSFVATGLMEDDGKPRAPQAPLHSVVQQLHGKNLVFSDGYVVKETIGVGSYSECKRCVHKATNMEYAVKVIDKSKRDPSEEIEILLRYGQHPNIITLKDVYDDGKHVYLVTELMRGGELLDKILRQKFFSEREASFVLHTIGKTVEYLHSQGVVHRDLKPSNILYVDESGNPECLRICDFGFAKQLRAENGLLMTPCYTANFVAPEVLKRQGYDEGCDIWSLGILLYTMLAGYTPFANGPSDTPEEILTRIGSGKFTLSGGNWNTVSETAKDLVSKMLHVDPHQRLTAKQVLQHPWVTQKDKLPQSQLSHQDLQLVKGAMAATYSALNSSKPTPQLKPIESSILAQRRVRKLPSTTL
MYLK4 (human), sequence (Q86YV6 whole entry, looked up): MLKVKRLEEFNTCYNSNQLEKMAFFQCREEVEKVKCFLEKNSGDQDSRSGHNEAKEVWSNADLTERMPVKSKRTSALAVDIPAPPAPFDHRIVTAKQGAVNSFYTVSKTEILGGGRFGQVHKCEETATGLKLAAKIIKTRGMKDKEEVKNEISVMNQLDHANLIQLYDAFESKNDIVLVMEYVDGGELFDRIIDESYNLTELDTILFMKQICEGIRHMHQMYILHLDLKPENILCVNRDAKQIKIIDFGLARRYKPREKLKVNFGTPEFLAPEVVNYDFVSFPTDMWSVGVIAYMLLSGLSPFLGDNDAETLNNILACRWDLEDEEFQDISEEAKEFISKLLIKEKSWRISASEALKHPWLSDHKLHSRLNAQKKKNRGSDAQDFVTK
NEK7 (human), sequence (Q8TDX7 whole entry, looked up): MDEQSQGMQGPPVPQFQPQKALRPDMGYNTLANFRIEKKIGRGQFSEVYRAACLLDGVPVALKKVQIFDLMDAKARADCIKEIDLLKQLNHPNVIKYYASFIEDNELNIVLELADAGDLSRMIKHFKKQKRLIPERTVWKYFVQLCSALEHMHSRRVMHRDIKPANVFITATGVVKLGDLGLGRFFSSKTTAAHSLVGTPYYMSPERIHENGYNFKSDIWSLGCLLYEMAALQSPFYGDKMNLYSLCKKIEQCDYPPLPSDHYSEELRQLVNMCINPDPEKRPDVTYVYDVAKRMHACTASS
DSTYK (human), sequence (Q6XUX3 whole entry, looked up): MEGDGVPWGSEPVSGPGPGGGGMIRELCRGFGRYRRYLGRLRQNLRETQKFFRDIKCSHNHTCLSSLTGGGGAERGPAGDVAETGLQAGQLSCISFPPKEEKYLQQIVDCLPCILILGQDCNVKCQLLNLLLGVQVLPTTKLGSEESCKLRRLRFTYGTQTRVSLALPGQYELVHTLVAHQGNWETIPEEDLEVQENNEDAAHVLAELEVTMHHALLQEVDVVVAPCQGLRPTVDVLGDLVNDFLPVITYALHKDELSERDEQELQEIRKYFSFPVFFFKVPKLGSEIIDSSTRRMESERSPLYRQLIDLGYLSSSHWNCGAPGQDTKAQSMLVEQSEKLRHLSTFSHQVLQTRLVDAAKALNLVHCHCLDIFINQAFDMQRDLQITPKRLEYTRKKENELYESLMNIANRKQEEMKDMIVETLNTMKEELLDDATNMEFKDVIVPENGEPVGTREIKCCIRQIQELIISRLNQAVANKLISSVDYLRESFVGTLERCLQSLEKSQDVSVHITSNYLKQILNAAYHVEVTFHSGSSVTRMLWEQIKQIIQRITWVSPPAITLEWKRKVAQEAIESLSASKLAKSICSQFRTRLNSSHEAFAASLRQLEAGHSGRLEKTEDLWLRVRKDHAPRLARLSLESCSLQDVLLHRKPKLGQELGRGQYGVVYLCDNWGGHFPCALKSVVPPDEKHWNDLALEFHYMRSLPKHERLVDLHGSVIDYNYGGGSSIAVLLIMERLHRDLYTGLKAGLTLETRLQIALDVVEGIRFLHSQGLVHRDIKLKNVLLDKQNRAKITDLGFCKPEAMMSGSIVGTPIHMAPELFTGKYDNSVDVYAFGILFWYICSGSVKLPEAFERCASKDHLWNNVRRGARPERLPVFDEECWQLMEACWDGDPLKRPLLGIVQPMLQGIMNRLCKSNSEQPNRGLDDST

`COCCNCCCn1c(C(=O)CF)c(-c2ccc(C)cc2)c2c(N)ncnc21` was tested, and the kinase still bound, per cent of control (ABL2 (human)) was 100%, the kinase still bound, per cent of control (ACVRL1 (human)) was 100% and the kinase still bound, per cent of control (AKT1 (human)) was 100%. It also gave a kinase still bound, per cent of control (BLK (human)) of 100%, a kinase still bound, per cent of control (BRSK1 (human)) of 82% and a kinase still bound, per cent of control (CDK17 (human)) of 100%. It also gave a kinase still bound, per cent of control (CDK7 (human)) of 100%, a kinase still bound, per cent of control (CDK8 (human)) of 100% and a kinase still bound, per cent of control (CSNK1G2 (human)) of 100%. It also gave a kinase still bound, per cent of control (CSNK1G3 (human)) of 98%, a kinase still bound, per cent of control (DDR1 (human)) of 100% and a kinase still bound, per cent of control (DSTYK (human)) of 100%. It also gave a kinase still bound, per cent of control (EGFR (human)) of 96%, a kinase still bound, per cent of control [1] of 90% and a kinase still bound, per cent of control (EPHA7 (human)) of 92%. For the same compound, the kinase still bound, per cent of control (EPHB4 (human)) was 89%, the kinase still bound, per cent of control (EPHB6 (human)) was 100% and the kinase still bound, per cent of control [2] was 65%. It also gave a kinase still bound, per cent of control (GRK7 (human)) of 100%, a kinase still bound, per cent of control (LIMK2 (human)) of 100% and a kinase still bound, per cent of control (MAP3K12 (human)) of 94%. For the same compound, the kinase still bound, per cent of control [3] was 95%, the kinase still bound, per cent of control (MYLK (human)) was 100% and the kinase still bound, per cent of control (MYLK4 (human)) was 86%. For the same compound, the kinase still bound, per cent of control (MYO3B (human)) was 79%, the kinase still bound, per cent of control (NEK7 (human)) was 100% and the kinase still bound, per cent of control (NLK (human)) was 96%. The kinase still bound, per cent of control (PAK3 (human)) was 100%, the kinase still bound, per cent of control (PI4KB (human)) was 100% and the kinase still bound, per cent of control (PIP4K2C (human)) was 100%. For the same compound, the kinase still bound, per cent of control (PIP5K1A (human)) was 100%, the kinase still bound, per cent of control (PKMYT1 (human)) was 86% and the kinase still bound, per cent of control (PKN1 (human)) was 100%. For the same compound, the kinase still bound, per cent of control (PRKD2 (human)) was 100%, the kinase still bound, per cent of control (RAF1 (human)) was 99% and the kinase still bound, per cent of control (RPS6KA1 KD1 (human)) was 78%. It also gave a kinase still bound, per cent of control (RPS6KA3 KD1 (human)) of 97%, a kinase still bound, per cent of control (TEK (human)) of 100% and a kinase still bound, per cent of control (TGFBR2 (human)) of 100%. It also gave a kinase still bound, per cent of control (TNK2 (human)) of 100%, a kinase still bound, per cent of control (TXK (human)) of 100% and a kinase still bound, per cent of control (VRK2 (human)) of 100%. The kinase still bound, per cent of control (YSK4 (human)) was 100%.
